What was measured:
ECHCG = assay: In-water applied weed control, transplanted paddy rice (greenhouse); format: in vivo, Echinochloa crusgalli (L.) Beauv.
Protocol: (§1) Weed seeds or nutlets of the desired test plant species were planted in puddled soil (mud) prepared by mixing a shredded, non-sterilized mineral soil (50.5 percent silt, 25.5 percent clay, and 24 percent sand, with a pH of about 7.6 and an organic matter content of about 2.9 percent) and water at a 1:1 volumetric ratio. The prepared mud was dispensed in 365 mL aliquots into 16-ounce (oz.) non-perforated plastic pots with a surface area of 86.59 square centimeters (cm^2) leaving a headspace of 3 centimeters (cm) in each pot. Mud was allowed to dry overnight prior to planting or transplanting. Rice seeds were planted in Sun Gro MetroMix® 306 planting mixture, which typically has a pH of 6.0 to 6.8 and an organic matter content of about 30 percent, in plastic plug trays. Seedlings at the second or third leaf stage of growth were transplanted into 860 mL of mud contained in 32-oz. non-perforated plastic pots with a surface area of 86.59 cm^2 4 days prior to herbicide application. The paddy was created by filling the headspace of the pots with 2.5 to 3 cm of water. When required to ensure good germination and healthy plants, a fungicide treatment and/or other chemical or physical treatment was applied. The plants were grown for 4-22 days in a greenhouse with an approximate 14 hr photoperiod which was maintained at about 29′C during the day and 26° C. during the night. Nutrients were added as Osmocote® (19:6:12, N:P:K+minor nutrients) at 2 g per 16-oz. pot and 4 g per 32-oz. pot. Water was added on a regular basis to maintain the paddy flood, and supplemental lighting was provided with overhead metal halide 1000-Watt lamps as necessary. The plants were employed for testing when they reached the first through fourth true leaf stage.
(§2) Treatments consisted of the acid or esters of 4-amino-3-chloro-5-fluoro-6-(4-chloro-2-fluoro-3-methoxy-phenyl)pyridine-2-carboxylic acid (compound A) each formulated as an SC and various herbicidal components alone and in combination. Forms of compound A were applied on an acid equivalent basis.
(§3) Other herbicidal components were applied on an active ingredient basis and included the dimethoxy-pyrimidine acid acetolactate synthase (ALS)-inhibiting herbicides bispyribac-sodium formulated as Regiment® 80 WP, pyriminobac-methyl formulated as Hie Clean®, and pyriftalid (technical grade material).
(§4) Treatment requirements for each compound or herbicidal component were calculated based upon the rates being tested, the concentration of active ingredient or acid equivalent in the formulation, an application volume of 2 mL per component per pot, and an application area of 86.59 cm^2 per pot.
(§5) For formulated compounds, a measured amount was placed in an individual 100 or 200 mL glass vial and was dissolved in a volume of 1.25% (v/v) Agri-Dex® crop oil concentrate to obtain application solutions.
(§6) For technical grade compounds, a weighed amount was placed in an individual 100 to 200 mL glass vial and was dissolved in a volume of acetone to obtain concentrated stock solutions. […] The concentrated stock solutions obtained were diluted with an equivalent volume of an aqueous mixture containing 2.5% (v/v) crop oil concentrate so that the final application solutions contained 1.25% (v/v) crop oil concentrate.
(§7) Applications were made by injecting with a pipetter appropriate amounts of the application solutions, individually and sequentially, into the aqueous layer of the paddy.
(§8) Control plants were treated in the same manner with the solvent blank. Applications were made so that all treated plant material received the same concentrations of acetone and crop oil concentrate.
(§9) The treated plants and control plants were placed in a greenhouse as described above and water was added as needed to maintain a paddy flood. […]

LEFCH = assay: as above; format: in vivo, Leptochloa chinensis (L.) Nees
Protocol: as §1, §2, §3, §4, §5, §6, §7
(§10) Control plants were treated in the same manner with the solvent blank. […]

IPOHE = assay: Postemergence foliar-applied weed control, direct seeded rice (greenhouse); format: in vivo, Ipomoea hederacea Jacq.
Excerpt: (§11) Seeds or nutlets of the desired test plant species were planted in a soil matrix prepared by mixing a loam or sandy loam soil (e.g., 28.6 percent silt, 18.8 percent clay, and 52.6 percent sand, with a pH of about 5.8 and an organic matter content of about 1.8 percent) and calcareous grit in an 80 to 20 ratio. The soil matrix was contained in plastic pots with a volume of 1 quart and a surface area of 83.6 square centimeters (cm^2). When required to ensure good germination and healthy plants, a fungicide treatment and/or other chemical or physical treatment was applied. The plants were grown for 8-22 days in a greenhouse with an approximate 14 hr photoperiod which was maintained at about 29° C. during the day and 26° C. during the night. Nutrients (Peters Excel® 15-5-15 5-Ca 2-Mg and iron chelate) were applied in the irrigation solution as needed and water was added on a regular basis. Supplemental lighting was provided with overhead metal halide 1000-Watt lamps as necessary. The plants were employed for testing when they reached the first through fourth true leaf stage.
as §2, with “(Compound A),” for “(compound A)”, “SC (suspension concentrate),” for “SC”
as §3, with “80WP, pyribenzoxim (technical grade material),” for “80 WP,”, “Hie-Clean® 1.2% GR dissolved in water,” for “Hie Clean®,”
(§12) Treatment requirements were calculated based upon the rates being tested, the concentration of active ingredient or acid equivalent in the formulation, and a 12 mL application volume at a rate of 187 L/ha.
(§13) For treatments comprised of formulated compounds, measured amounts of compounds were placed individually in 25 mL glass vials and diluted in a volume of 1.25% (v/v) Agri-Dex® crop oil concentrated to obtain 12× stock solutions. […] Application solutions were prepared by adding an appropriate amount of each stock solution (e.g., 1 mL) and diluted to the appropriate final concentrations with the addition of 10 mL of an aqueous mixture of 1.25% (v/v) crop oil concentrate so that the final spray solutions contained 1.25+/−0.005% (v/v) crop oil concentrate.
(§14) For treatments comprised of technical compounds, weighed amounts can be placed individually in 25 mL glass vials and dissolved in a volume of 97:3 v/v acetone/DMSO to obtain 12× stock solutions. […] Application solutions can be prepared by adding an appropriate amount of each stock solution (e.g., 1 mL) and diluted to the appropriate final concentrations with the addition of 10 mL of an aqueous mixture of 1.5% (v/v) crop oil concentrate so that the final spray solutions contain 1.25% (v/v) crop oil concentrate. When technical materials are used, the concentrated stock solutions can be added to the spray solutions so that the final acetone and DMSO concentrations of the application solutions are 16.2% and 0.5%, respectively.
(§15) For treatments comprised of formulated and technical compounds, weighed amounts of the technical materials were placed individually in 25 mL glass vials and dissolved in a volume of 97:3 v/v acetone/DMSO to obtain 12× stock solutions, and measured amounts of the formulated compounds were placed individually in 25 mL glass vials and diluted in a volume of 1.5% (v/v) crop oil concentrate or water to obtain 12× stock solutions. […]

ECHOR = assay: In-water applied weed control, transplanted paddy rice (greenhouse); format: in vivo, Echinochloa oryzoides (Ard.) Fritsch; settings: 42.2 gae/ha
Protocol: as §1, §2, §3, §4, §5, §6, §7, §10

DIGSA = assay: Postemergence foliar-applied weed control, direct seeded rice (greenhouse); format: in vivo, Digitaria sanguinalis (L.) Scop.
Excerpt: as §11
as §2, with “(Compound A),” for “(compound A)”, “SC (suspension concentrate),” for “SC”
as §3, with “80WP, pyribenzoxim (technical grade material),” for “80 WP,”, “Hie-Clean® 1.2% GR dissolved in water,” for “Hie Clean®,”
as §12, §13
as §14, with “When technical materials are used, the concentrated stock solutions can be added to the spray solutions so that the final acetone and DMSO concentrations of the application solutions are 16.2% and 0.5%, respectively.” left out
as §15

ECHCO = assay: In-water applied weed control, transplanted paddy rice (greenhouse); format: in vivo, Echinochloa colona (L.) Link
Protocol: as §1, with “Water was added on a regular basis to maintain the paddy flood, and supplemental lighting was provided with overhead metal halide 1000-Watt lamps as necessary. The plants were employed for testing when they reached the first through fourth true leaf stage.” left out
as §4
For formulated compounds, a measured amount was placed in an individual 100 or 200 mL glass vial and was dissolved in a volume of 1.25% (v/v) Agri-Dex® crop oil concentrate to obtain application solutions. […]

FIMMI = assay: as above; format: in vivo, Fimbristylis miliacea (L.) Vahl
Protocol: as §1, §2, §3, §4, §5, §6, §7, §8, §9

SCPMA = assay: as above; format: in vivo, Bolboschoenus maritimus (L.) Palla
Protocol: as §1, §2, §3, §4, §5, §6, §7, §8, §9

BRAPP = assay: Postemergence foliar-applied weed control, direct seeded rice (greenhouse); format: in vivo, Brachiaria platyphylla (Griseb.) Nash; settings: 4.38 gae/ha
Excerpt: as §11, with “stage. […]” for “stage.”
as §12
For treatments comprised of formulated compounds, measured amounts of compounds were placed individually in 25 mL glass vials and diluted in a volume of 1.25% (v/v) Agri-Dex® crop oil concentrated to obtain 12× stock solutions. […]
as §15

CYPRO = assay: In-water applied weed control, transplanted paddy rice (greenhouse); format: in vivo, Cyperus rotundus L.
Protocol: as §1, §2, §3, §4, §5, §6, §7, §8, §9

Structure (SMILES): COc1c(Cl)ccc(-c2nc(C(=O)O)c(Cl)c(N)c2F)c1F [Compound A Acid, 4-amino-3-chloro-6-(4-chloro-2-fluoro-3-methoxyphenyl)-5-fluoropyridine-2-carboxylic acid]
- Visual Weed Control (%) - 20 DAA ECHCG Obs (ECHCG; 8.75 gae/ha): 0%
- Visual Weed Control (%) - 20 DAA ECHCG Obs (ECHCG; 17.5 gae/ha): 35%
- Visual Weed Control (%) - 20 DAA ECHCG Obs (ECHCG; 35 gae/ha): 55%
- Visual Weed Control (%) - 20 DAA ECHCG Obs (ECHCG; 42.2 gae/ha): 18%
- Visual Weed Control (%)-21 DAA LEFCH Obs (LEFCH; 8.75 gae/ha): 0%
- Visual Weed Control (%)-21 DAA LEFCH Obs (LEFCH; 17.5 gae/ha): 0%
- Visual Weed Control (%)-20 DAA LEFCH Obs (LEFCH; 42.2 gae/ha): 15%
- Visual Weed Control (%)-24 DAA IPOHE Obs (IPOHE; 4.38 gae/ha): 10%
- Visual Weed Control (%)-24 DAA IPOHE Obs (IPOHE; 8.75 gae/ha): 10%
- Visual Weed Control (%)-24 DAA IPOHE Obs (IPOHE; 17.5 gae/ha): 30%
- Visual Weed Control (%)-24 DAA IPOHE Obs (IPOHE; 17.5 gae/ha, second part of Table 3): 25%
- Visual Weed Control (%)-24 DAA IPOHE Obs (IPOHE; 35 gae/ha, second part of Table 3): 48%
- Visual Weed Control (%)-20 DAA ECHOR Obs (ECHOR): 18%
- Visual Weed Control (%)-24 DAA DIGSA Obs (DIGSA; 4.38 gae/ha): 20%
- Visual Weed Control (%)-24 DAA DIGSA Obs (DIGSA; 8.75 gae/ha): 25%
- Visual Weed Control (%)-24 DAA DIGSA Obs (DIGSA; 17.5 gae/ha): 25%
- Visual Weed Control (%)-21 DAA ECHCO Obs (ECHCO; 8.75 gae/ha): 0%
- Visual Weed Control (%)-21 DAA ECHCO Obs (ECHCO; 17.5 gae/ha): 20%
- Visual Weed Control (%)-21 DAA FIMMI Obs (FIMMI; 8.75 gae/ha): 50%
- Visual Weed Control (%)-21 DAA FIMMI Obs (FIMMI; 17.5 gae/ha): 85%
- Visual Weed Control (%)-21 DAA FIMMI Obs (FIMMI; 35 gae/ha): 85%
- Visual Weed Control (%)-21 DAA SCPMA Obs (SCPMA; 8.75 gae/ha): 0%
- Visual Weed Control (%)-21 DAA SCPMA Obs (SCPMA; 17.5 gae/ha): 0%
- Visual Weed Control (%)-20 DAA SCPMA Obs (SCPMA; 35 gae/ha): 0%
- Visual Weed Control (%)-21 DAA SCPMA Obs (SCPMA; 35 gae/ha): 0%
- Visual Weed Control (%)-20 DAA SCPMA Obs (SCPMA; 42.2 gae/ha): 0%
- Visual Weed Control (%)-20 DAA SCPMA Obs (SCPMA; 70 gae/ha): 0%
- Visual Weed Control (%)-22 DAA BRAPP Obs (BRAPP): 45%
- Visual Weed Control (%)-21 DAA CYPRO Obs (CYPRO; 8.75 gae/ha): 30%
- Visual Weed Control (%)-21 DAA CYPRO Obs (CYPRO; 17.5 gae/ha): 40%
- Visual Weed Control (%)-21 DAA CYPRO Obs (CYPRO; 35 gae/ha): 70%
